Laboratory results reported in patent publication US20250051293A1, “NOVEL OXADIAZOLE DERIVATIVE AND USE THEREOF” (CELROS BIOTECH, priority 2021, published 2025).

Tests used:
[1] = Cytotoxicity experiment (MTT assay) HT-22; type: cell-based; conditions: mouse, HT-22 cells
Procedure: HepG2 (human hepatocellular carcinoma) and HT-22 (mouse hippocampal neuronal cell line) were seeded at densities of 1×10^5 or 1.5×10^4 per well in a 48-well plate and incubated for at least 12 hours, then treated with compounds of Example 1 and Example 2 at various concentrations (0 nM, 1 nM, 10 nM, 100 nM, 1000 nM, 10000 nM, 100000 nM, and 1000000 nM) and incubated for 24 hours. MTT solution (Thiazolyl Blue Tetrazolium Bromide 2 mg/ml) was subsequently added at 30 μl per well. After incubation for 4 hours, the culture medium containing the MTT solution was removed and 300 μl of DMSO was added to dissolve the MTT-formazan. 100 μl of the solution in each well was transferred to a 96-well plate and the absorbance was measured at 570 nm. IC50 values were calculated with Graph-Pad Prism 5 (GraphPad Software). The cell viability of the groups treated with the compounds of Example 1 and Example 2 at each concentration was determined relative to control group in which HepG2 cells were treated with DMSO alone, in at least five replicates.

BV2 cells = test: Microglia (BV2) migration, transwell; type: cell-based, mouse; conditions: LPS 1 μg/ml, 24 hours, compound 10 μM
Procedure: To determine the migration level of BV2 cells, 8 μm-sized transwells (35224, SPL) were used. 1×10^5 BV2 cells were seeded into the insertion transwells, and the lower wells were treated with the compound of Example 2 or Apocynin (NOX inhibitor) along with lipopolysaccharide (LPS, 1 μg/ml) as stimulus. After 24 hours of incubation, BV2 cells that migrated to the bottom of the insertion transwells were stained with crystal violet.

Tg−APP/PS1 animal models = test: Tg-APPswe/PS1dE9 Alzheimer's animal model; type: in vivo, mice
Procedure: The Tg−APP/PS1 animal models were used to determine the effect of compounds of Examples according to The present disclosure on Alzheimer's disease. This animal models show amyloid plaque deposition as early as 6.5 months and severe cognitive impairment at 6 to 8 months. The Tg−APP/PS1 animal models were administered with vehicle or the Example compound (i.e., Example 2 was used) at 30 mg/kg or 10 mg/kg every other day from 6.5 to 8 months. All behavioral testing occurred between 7.5 and 8 months, and brain tissues for biopsy were obtained by perfusion after behavioral testing. To confirm amyloid beta plaques, the brain tissues obtained in the above part (1)_1) were incubated in 1% Thioflavin-S solution for 8 to 20 minutes and washed with ethanol and distilled water. The stained tissues were sectioned and the number of plaques or stained areas were quantified. To confirm the changes in astrocytes and microglia by administration of oxadiazole derivative compounds, immunostaining was performed using GFAP antibody, a marker for astrocytes, and Iba1 antibody, a marker for microglia. The novel object recognition (NOR) and novel location recognition (NLR) tests are behavioral assessments that evaluate memory based on the disparity in search time between a novel object or an object relocated to a new position compared to a familiar object. Each experimental animal was placed in a square box with two identical objects and allowed to familiarize for 10 minutes (familiarization #1). Ten minutes after the first familiarization was completed, the objects used in the first familiarization were returned to their original position and subjected to a second familiarization (familiarization #2). After 2 hours, only one of the objects used in familiarization was replaced with a novel object and placed in the same position and the exploration time of the familiar and novel objects (2 h NOR) was determined. After 15 minutes, the familiar object was repositioned, and the exploration time of both objects was checked (NLR). After 22 hours (24 hours after familiarization), the novel object and the familiar object were placed and the exploration time was determined (24 h NOR). water maze test is frequently used to assess memory functions such as memory formation, consolidation, and retrieval effects by assessing the time it takes for an experimental animal to find a platform beneath the water surface, relying on environmental cues. Therefore, the treatment effect on Alzheimer's disease was confirmed using the model used in the water maze test above. The passive avoidance test is a fear-motivated test mainly used to evaluate short-term or long-term memory in experimental animals. The passive avoidance test evaluates fear memory by utilizing the innate tendency of experimental animals to prefer dark areas and avoid bright areas, delivering an electric shock to the paw upon entry into a dark area, and measuring the time it takes for the animal to re-enter the dark area upon re-exposure to the same environment.

[2] = test system: rodent brain tumor glioblast cell line 7080; test: Glioblastoma cell growth inhibition, cell line 7080; type: cell-based; conditions: all concentrations (0.5 μm, 1 μM, and 2 μM)
Procedure: (§1) Cell growth experiments were performed to determine the effect of the compounds according to The present disclosure on the growth of brain tumor glioblast cells. Specifically, the rodent brain tumor glioblast cell line 7080 and the human glioblast cell line U87 were treated with the compound of Example 2 according to The present disclosure to determine the cell growth inhibitory effects, and the results are shown in FIG. 18.

[3] = test system: human glioblast cell line U87; test: Glioblastoma cell growth inhibition, U87; type: cell-based; conditions: 2 μM, starting 4 days after treatment
Procedure: as §1

[4] = Metabolic stability in human liver microsomes; type: in vitro ADME; conditions: human liver microsomes 0.5 mg/ml, 1 μM, 30 minutes, 37° C., NADPH
Procedure: The stability of a drug may be predicted by using liver microsomes to determine the extent to which the drug is metabolized in the liver. […] Thus, a metabolic stability verification experiment was performed on the oxadiazole derivatives according to The present disclosure.
Specifically, sample treatment human liver microsomes (0.5 mg/ml), 0.1 M phosphate buffer (pH 7.4), and test compound at a concentration of 1 μM were added, and the mixture was pre-incubated at 37° C. for 5 minutes, followed by addition of NADPH Regeneration system solution and incubation at 37° C. for 30 minutes. An acetonitrile solution containing an internal standard (chlorpropamide) was then added to terminate the reaction, followed by centrifugation for 5 minutes (14,000 rpm, 4° C.). Then, the supernatant was injected into the LC-MS/MS system to analyze the substrate drug to evaluate the metabolic stability of the two compounds.
The HPLC column was an Acquity UPLC BEH Amide column (2.1×100 mm, 1.7 μm particle size; Waters, Ireland). The mobile phases were distilled water containing 0.1% formic acid (A) and acetonitrile containing 0.1% formic acid (B). Data analysis was performed using Analyst software (version 1.6.3).

[5] = parietal cortex, piriform cortex, and hippocampus

Compound	IC50 at 24 h [1] [µM]	LPS-induced increase in number of migrated BV2 cells (BV2 cells)	exploration time for novel objects than familiar objects (2 h NOR) (Tg−APP/PS1 animal models; 30 mg/kg)	exploration time for novel objects than familiar objects (24 h NOR) (Tg−APP/PS1 animal models; 30 mg/kg)	exploration time for objects located in a novel location (NLR) (Tg−APP/PS1 animal models; 30 mg/kg)	amyloid plaque deposition (Thioflavin-S staining) (Tg−APP/PS1 animal models; 30 mg/kg or 10 mg/kg every other day from 6.5 to 8 months)	water maze test, time required to locate platform (Tg−APP/PS1 animal models; five consecutive days of training)	activation of astrocytes (GFAP immunostaining) (Tg−APP/PS1 animal models; [5])	activation of microglia (Iba1 immunostaining) (Tg−APP/PS1 animal models; [5])	passive avoidance test, time to enter the dark area (Tg−APP/PS1 animal models; post-shock, 24 to 120 hours)	glioma cell growth of glioblast cell line 7080 [2]	cell growth of human glioblast cell line U87 [3]	Human (% ) remaining, microsomal stability [4] [%]
O=C(Nc1nnc(-c2ccccc2)o1)c1ccc(F)c(C(F)(F)F)c1 [Example 2, 4-fluoro-N-(5-phenyl-1,3,4-oxadiazol-2-yl)-3-(trifluoromethyl)benzamide]	5.5	offset	significantly increase	remarkable increase	significant increase	highly significant ameliorative effect	memory acquisition ability equivalent to wild-type mice	effectively reduced	effectively reduced	fear memory retention comparable to that of wild-type animals	strongly inhibited	cell growth inhibition was observed	>100
O=C(Nc1nnc(-c2cccc(Cl)c2)o1)c1cc(F)cc(C(F)(F)F)c1 [Example 1, N-(5-(3-chlorophenyl)-1,3,4-oxadiazol-2-yl)-3-fluoro-5-(trifluoromethyl)benzamide]	2	–	–	–	–	–	–	–	–	–	–	–	81.7
